Experimental data: patent publication US20140135359A1, “METHODS OF DESIGNING, PREPARING, AND USING NOVEL PROTONOPHORES” (priority 2012, published 2014)

Columns and labels:
[1] = tested on: differentiated C2C12 skeletal muscle cells; test: 3H-deoxyglucose uptake in C2C12 myotubes; assay type: cell-based, murine; settings: 18 h
Protocol: 2.3 ^3H-deoxyglucose uptake in C2C12 myotubes: Cell culture and the ^3H-deoxyglucose uptake assay were performed as previously described [34B, 35B, 37B]. Briefly, C2C12 murine skeletal myoblasts (American Type Culture Collection; Manassas, Va.) were cultured under standard conditions in 12-well plates. Cells were proliferated to 80% confluence in high-glucose Dulbecco's modified Eagle's medium (DMEM; Wisent; St-Bruno, QC) supplemented with 10% fetal bovine serum (FBS; Wisent), 10% horse serum (HS), and antibiotics. Differentiation into multinucleated myotubes was then promoted with DMEM supplemented with 2% HS and antibiotics. All uptake assays were performed on 7-day differentiated cells, and treatments were timed accordingly. […] DMSO concentration was fixed at 0.1% for all conditions. Cells were routinely inspected for abnormal morphology by phase-contrast microscopy at the conclusion of the treatment period. […] Cells were then washed twice in glucose-free KPB at 37° C. before incubation for exactly 10 min at 37° C. in glucose-free KPB containing 0.5 μCi/ml 2-deoxy-D-[1-^3H]glucose (Amersham Biosciences; Buckinghamshire, UK). Cells were then placed on ice and immediately washed three times with ice-cold KPB. Cells were inspected for monolayer detachment and lysed in 0.1 N NaOH with scraping. […] Three independent experiments of 18 h treatment duration were performed for each of the selected test compounds, with three replicates per condition per experiment. Vehicle-control and 50 μM 2,4-dinitrophenol conditions were included on every plate. Some compounds were also tested at 50 μM under the following conditions: a 15 h treatment with vehicle only followed by a 3 h treatment with the test compound; a 15 h treatment with the test compound followed by a 3 h repeat treatment.
Protocol for ^3H-deoxyglucose uptake assay in C2C12 or other skeletal muscle cells; C2C12 murine skeletal myoblasts (American Type Culture Collection; Manassas, Va.) may be cultured under standard conditions in 12-well plates. Cells may be proliferated to 80% confluence in high-glucose Dulbecco's modified Eagle's medium (DMEM) supplemented with 10% fetal bovine serum (FBS), 10% horse serum (HS), and antibiotics. Differentiation into multinucleated myotubes may be then promoted with DMEM supplemented with 2% HS and antibiotics. All uptake assays may be performed on 7-day differentiated cells, and treatment onset may be timed accordingly. Cells may be treated with reference substances (such as metformin (100 or 400 μM), phenformin (100 μM), or 2,4-dinitrophenol 10-100 μM), compounds described herein, or vehicle (DMSO) in complete differentiation medium. DMSO concentration may be fixed at 0.1% for all conditions. Cells may be routinely inspected for abnormal morphology by phase-contrast microscopy at the conclusion of the treatment period. […] Cells may be then washed twice in glucose-free KPB at 37° C. before incubation for exactly 10 min at 37° C. in glucose-free KPB containing 0.5 μCi/ml 2-deoxy-D-[1-3H]glucose (Amersham Biosciences; Buckinghamshire, UK). Cells may be then placed on ice and immediately washed three times with ice-cold KPB. Cells may be inspected for monolayer detachment and lysed in 0.1 N NaOH with scraping. […] Three or more independent experiments of 18 hours treatment duration may be performed for each test compound, with three or more replicates per condition per experiment. Vehicle-control and 2,4-dinitrophenol conditions may be included on every plate for the purpose of standardizing.

[2] = tested on: glucose-6-phosphatase (G6Pase) activity in H4IIE hepatocytes; test: Glucose-6-phosphatase activity in H4IIE hepatocytes; assay type: cell-based, murine; settings: 16 h; for suppression of G6Pase activity: 12.5 μM, result in words; for increase in G6Pase activity: 1 μM
Protocol: 2.4 Glucose-6-phosphatase activity in H4IIE hepatocytes: H4IIE murine hepatocytes (American Type Culture Collection) were cultured to confluence in 12-well plates in DMEM supplemented with 10% FBS and antibiotics. […] Effects of test compounds on cellular viability were assessed by measuring the release of lactate dehydrogenase (LDH) into the culture medium at the end of a 16 h treatment using a commercial kit (Cytotoxicity Detection Kit; Roche Diagnostics; Laval, QC) as per the manufacturer's instructions; LDH release was expressed as % of total (medium+lysate) LDH content for each well. Cells were also routinely inspected for abnormal morphology by phase-contrast microscopy at the conclusion of the treatment period. Following treatment, cells were washed in HEPES-buffered saline (10 mM HEPES, pH 7.4, 150 mM NaCl) at 37° C. Glucose-6-phosphatase (G6Pase) activity was assessed by measuring the rate of glucose formation in the presence of a non-limiting amount of glucose-6-phosphate (G6P), as done by others [39B, 40B]. Glucose production was measured with a commercial glucose assay kit (AutoKit Glucose; Wako Diagnostics; Richmond, Va.). Two hundred μl of AutoKit Glucose buffer solution diluted 1:4 in water were added to each well. Cells were then lysed by the addition of 50 μl of 0.05% Triton X-100 in similarly diluted AutoKit Glucose buffer solution. […] At 37° C., after which time 500 μl of AutoKit Glucose color reagent were added and incubation was continued for exactly 5 min. Samples were then rapidly transferred to microcentrifuge tubes. Fifty μl were removed for assay of total protein content in order to account for effects of test compounds on cellular viability or proliferation [41B]. A commercial protein assay kit based on the Bradford method was used (Protein Assay; Bio-Rad Laboratories; Hercules, Calif.). […] The remaining volume was centrifuged at 3000×g for 5 min. Absorbance of the supernatant was measured at 505 nm at ambient temperature and glucose concentration was calculated from a standard curve performed in parallel. Control wells without exogenous G6P were included on each plate for each treatment condition and activity measured from these wells was subtracted from activity measured in the presence of exogenous G6P. G6Pase activity calculated in this way was then expressed normalized to protein content on a well-by-well basis. Two independent experiments in cells of different passages were performed for each of the selected test compounds, with four to six replicates per condition per experiment.
Protocol for assay of glucose-6-phosphatase activity in H4IIE or other hepatocytes: H4IIE murine hepatocytes (American Type Culture Collection) may be cultured to confluence in 12-well plates in Dulbecco's modified Eagle's medium (DMEM) supplemented with 10% fetal bovine serum (FBS), and antibiotics. […] Effects of test compounds on cellular viability may be assessed by measuring the release of lactate dehydrogenase (LDH) into the culture medium at the end of a 16 hour treatment using a commercial kit (e.g., Cytotoxicity Detection Kit; Roche Diagnostics; Laval, QC) as per the manufacturer's instructions; LDH release may be expressed as % of total (i.e., medium+lysate) LDH content for each well. Cells may also be routinely inspected for abnormal morphology by phase-contrast microscopy at the conclusion of the treatment period. Following treatment, cells may be washed in HEPES-buffered saline (10 mM HEPES, pH 7.4, 150 mM NaCl) at 37° C. Glucose-6-phosphatase (G6Pase) activity may be assessed by measuring the rate of glucose formation in the presence of a non-limiting amount of glucose-6-phosphate (G6P). Glucose production may be measured with a commercial glucose assay kit (e.g., AutoKit Glucose; Wako Diagnostics; Richmond, Va.). Two hundred μl of AutoKit Glucose buffer solution diluted 1:4 in water may be added to each well.

[3] = tested on: isolated rat liver mitochondria; test: Uncoupling activity: increase in basal (state 4) oxygen consumption by oxygraphy; assay type: biochemical; settings: for Measured Uncoupling Activity (% uncoupling ± SEM @ 100 μM): Suppl. Table 1, 2-3 mitochondrial preparations; for Measured Uncoupling (% uncoupling ± SEM @ 100 μM): Table 1A, relative to ADP-stimulated respiration = 100%; for Uncoupling (%): increase in basal (state 4) oxygen consumption as % of average ADP-stimulated (state 3) rate in vehicle-treated mitochondria
[4] = tested on: isolated rat liver mitochondria; test: Residual functional capacity / inhibitory effect on ADP-stimulated (state 3) oxygen consumption; assay type: biochemical; settings: for inhibitory effect on oxidative phosphorylation: 50 μM (FIG. 19); for Residual capacity (%): functional capacity (state 3 minus state 4 rate) as % of vehicle-treated mitochondria
C2C12 myotubes = test: Morphology / monolayer detachment inspection of treated myotubes; assay type: cell-based, murine; settings: 100 μM, 18 h
Protocol: 2.3 ^3H-deoxyglucose uptake in C2C12 myotubes: Cell culture and the ^3H-deoxyglucose uptake assay were performed as previously described [34B, 35B, 37B]. Briefly, C2C12 murine skeletal myoblasts (American Type Culture Collection; Manassas, Va.) were cultured under standard conditions in 12-well plates. Cells were proliferated to 80% confluence in high-glucose Dulbecco's modified Eagle's medium (DMEM; Wisent; St-Bruno, QC) supplemented with 10% fetal bovine serum (FBS; Wisent), 10% horse serum (HS), and antibiotics. Differentiation into multinucleated myotubes was then promoted with DMEM supplemented with 2% HS and antibiotics. All uptake assays were performed on 7-day differentiated cells, and treatments were timed accordingly. […] DMSO concentration was fixed at 0.1% for all conditions. Cells were routinely inspected for abnormal morphology by phase-contrast microscopy at the conclusion of the treatment period. […] Cells were then washed twice in glucose-free KPB at 37° C. before incubation for exactly 10 min at 37° C. in glucose-free KPB containing 0.5 μCi/ml 2-deoxy-D-[1-^3H]glucose (Amersham Biosciences; Buckinghamshire, UK). Cells were then placed on ice and immediately washed three times with ice-cold KPB. Cells were inspected for monolayer detachment and lysed in 0.1 N NaOH with scraping. […]

O=C(/C=C/c1ccc(O)c(O)c1)c1ccc(O)cc1O [butein]
increase in basal glucose uptake ([1]; at ⅛th of metformin's concentration (400 μM)): 269%
effect on basal glucose uptake relative to metformin ([1]; metformin 400 μM): more than 6 fold
suppression of G6Pase activity [2]: exceeding the effect of metformin at 400 μM
uncoupling activity ([3]; 50 μM in 0.1% DMSO (FIG. 19)): partial uncoupling
Measured Uncoupling Activity (% uncoupling ± SEM @ 100 μM) ([3]; 100 μM): 71 ± 4 % uncoupling
Measured Uncoupling (% uncoupling ± SEM @ 100 μM) ([3]; 100 μM): 71 ± 4 % uncoupling
Uncoupling (%) ([3]; test conc. 25 μM): 26 ± 4%
Uncoupling (%) ([3]; test conc. 100 μM): 71 ± 4%
inhibitory effect on oxidative phosphorylation [4]: inhibition of ADP-stimulated consumption
Inhibitory effect (%) ([4]; test conc. 25 μM): 23%
Residual capacity (%) ([4]; test conc. 25 μM): 51 ± 12%
Inhibitory effect (%) ([4]; test conc. 100 μM): 29%
Residual capacity (%) ([4]; test conc. 100 μM): 0 ± 0%

O=C(/C=C/c1ccccc1)c1ccccc1 [chalcone]
suppression of G6Pase activity [2]: did not suppress G6Pase activity
uncoupling activity ([3]; 50 μM in 0.1% DMSO (FIG. 19)): devoid of uncoupling activity
uncoupling activity ([3]; 100 μM, result in words): inactive
Measured Uncoupling Activity (% uncoupling ± SEM @ 100 μM) ([3]; 100 μM): −6 ± 0 % uncoupling
Uncoupling (%) ([3]; test conc. 100 μM): −6 ± 0%
inhibitory effect on oxidative phosphorylation [4]: small inhibitory effect
inhibition of ADP-stimulated oxygen consumption ([4]; screening at 100 μM): inhibitory activity
Inhibitory effect (%) ([4]; test conc. 100 μM): 65%
Residual capacity (%) ([4]; test conc. 100 μM): 35 ± 5%

COc1cc(/C=C/C(=O)CC(=O)/C=C/c2ccc(O)c(OC)c2)ccc1O [curcumin]
indications of cytotoxicity (C2C12 myotubes): increased susceptibility to monolayer detachment
Uncoupling (%) ([3]; test conc. 25 μM): 42 ± 8%
Uncoupling (%) ([3]; test conc. 100 μM): 79 ± 6%
Inhibitory effect (%) ([4]; test conc. 25 μM): 17%
Residual capacity (%) ([4]; test conc. 25 μM): 41 ± 9%
Inhibitory effect (%) ([4]; test conc. 100 μM): 21%
Residual capacity (%) ([4]; test conc. 100 μM): 0 ± 0%

C[C@@H]1C[C@H]2[C@@H]3CCC4=CC(=O)C=C[C@]4(C)[C@@]3(F)[C@@H](O)C[C@]2(C)[C@@]1(O)C(=O)CO [dexamethasone]
increase in G6Pase activity [2]: 56%
increase in G6Pase activity ([2]; listed as Dexamethasone): 56±10%

O=C(/C=C/c1ccc(O)cc1)c1ccc(O)cc1O [isoliquiritigenin]
suppression of G6Pase activity [2]: exceeding the effect of metformin at 400 μM
uncoupling activity ([3]; 100 μM, result in words): complete uncoupling
Measured Uncoupling Activity (% uncoupling ± SEM @ 100 μM) ([3]; 100 μM): 108 ± 7 % uncoupling
Measured Uncoupling (% uncoupling ± SEM @ 100 μM) ([3]; 100 μM): >100 % uncoupling
Uncoupling (%) ([3]; test conc. 25 μM): 24 ± 3%
Uncoupling (%) ([3]; test conc. 100 μM): 108 ± 7%
Inhibitory effect (%) ([4]; test conc. 25 μM): 11%
Residual capacity (%) ([4]; test conc. 25 μM): 65 ± 6%
Inhibitory effect (%) ([4]; test conc. 100 μM): 0%
Residual capacity (%) ([4]; test conc. 100 μM): 0 ± 0%

O=c1c(O)c(-c2ccc(O)cc2)oc2cc(O)cc(O)c12 [kaempferol]
indications of cytotoxicity (C2C12 myotubes): decreased uptake relative to vehicle-control levels
Measured Uncoupling Activity (% uncoupling ± SEM @ 100 μM) ([3]; 100 μM): 25 ± 2 % uncoupling
Uncoupling (%) ([3]; test conc. 25 μM): 10 ± 1%
Uncoupling (%) ([3]; test conc. 100 μM): 25 ± 2%
Inhibitory effect (%) ([4]; test conc. 25 μM): 28%
Residual capacity (%) ([4]; test conc. 25 μM): 62 ± 5%
Inhibitory effect (%) ([4]; test conc. 100 μM): 47%
Residual capacity (%) ([4]; test conc. 100 μM): 28 ± 4%

CN(C)C(=N)N=C(N)N [metformin]
increase in basal glucose uptake ([1]; 400 μM): 43%
suppression of G6Pase activity per mg total protein ([2]; 400 μM): 56%

[H]/N=C(/N)N/C(=N/[H])NCCc1ccccc1 [phenformin]
increase in basal glucose uptake ([1]; 100 μM): 48%
